{"source": "PubChem BioAssay AID1259411", "about": "(Chemical Carcinogenesis Research Information System (CCRIS), 2018)", "system": "rodent carcinogenicity bioassays, tumor incidence", "assay": "CCRIS carcinogenicity studies", "in_short": "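Archive of carcinogenicity, mutagenicity, tumor promotion and tumor inhibition results drawn from journals, NCI reports and other sources, expert-reviewed; covers 1985-2011 and is no longer updated.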", "note": "Calls of active or inactive are those of the source. How the calls were made is not given here."}
{"compound": "C1=Cc2cc3ccccc3c3cccc1c23", "values": [{"measurement": "carcinogen call", "setting": "Species: MOUSE, Strain/Sex: BLU:HA/FEMALE, Route: INTRAPERITONEAL, Dose: 0, 175, 437.5 UG/KG/D ON DAYS 1 (1/7 TOTAL DOSE), 8 (2/7 TOTAL DOSE), AND 15 (4/7 TOTAL DOSE) AFTER BIRTH (STUDY DURATIO, Dose: 0, 175, 437.5 UG/KG/D ON DAYS 1 (1/7 TOTAL DOSE), 8 (2/7 TOTAL DOSE), AND 15 (4/7 TOTAL DOSE) AFTER BIRTH (STUDY DURATIO", "value": "inactive; negative"}, {"measurement": "carcinogen call", "setting": "Species: MOUSE, Strain/Sex: BLU:HA/MALE, Route: INTRAPERITONEAL, Dose: 0, 175, 437.5 UG/KG/D ON DAYS 1 (1/7 TOTAL DOSE), 8 (2/7 TOTAL DOSE), AND 15 (4/7 TOTAL DOSE) AFTER BIRTH (STUDY DURATIO, Dose: 0, 175, 437.5 UG/KG/D ON DAYS 1 (1/7 TOTAL DOSE), 8 (2/7 TOTAL DOSE), AND 15 (4/7 TOTAL DOSE) AFTER BIRTH (STUDY DURATIO, Tumor Site: Type of Lesion: LUNG: ADENOMA", "value": "active; positive"}, {"measurement": "carcinogen call", "setting": "Species: MOUSE, Strain/Sex: CD-1/FEMALE, Route: INTRAPERITONEAL, Dose: 0, 175, 437.5, 875 UG/KG/D ON DAYS 1 (1/7 TOTAL DOSE), 8 (2/7 TOTAL DOSE), AND 15 (4/7 TOTAL DOSE) AFTER BIRTH (STUDY DU, Dose: 0, 175, 437.5, 875 UG/KG/D ON DAYS 1 (1/7 TOTAL DOSE), 8 (2/7 TOTAL DOSE), AND 15 (4/7 TOTAL DOSE) AFTER BIRTH (STUDY DU", "value": "inactive; negative"}, {"measurement": "carcinogen call", "setting": "Species: MOUSE, Strain/Sex: CD-1/MALE, Route: INTRAPERITONEAL, Dose: 0, 175, 437.5, 875 UG/KG/D ON DAYS 1 (1/7 TOTAL DOSE), 8 (2/7 TOTAL DOSE), AND 15 (4/7 TOTAL DOSE) AFTER BIRTH (STUDY DU, Dose: 0, 175, 437.5, 875 UG/KG/D ON DAYS 1 (1/7 TOTAL DOSE), 8 (2/7 TOTAL DOSE), AND 15 (4/7 TOTAL DOSE) AFTER BIRTH (STUDY DU, Tumor Site: Type of Lesion: LUNG: ADENOMA OR ADENOCARCINOMA, LIVER: TUMOR", "value": "active; positive"}]}
{"compound": "C=CCc1ccc(O)c(OC)c1", "values": [{"measurement": "carcinogen call", "setting": "Species: MOUSE, Strain/Sex: B6C3F1/FEMALE, Route: ORAL, Dose: 0, 3000, 6000 PPM IN DIET FOR 103 WK (STUDY DURATION: 103 WK), Dose: 0, 3000, 6000 PPM IN DIET FOR 103 WK (STUDY DURATION: 103 WK), Tumor Site: Type of Lesion: LIVER: HEPATOCELLULAR ADENOMA OR CARCINOMA", "value": "equivocal"}, {"measurement": "carcinogen call", "setting": "Species: MOUSE, Strain/Sex: B6C3F1/MALE, Route: ORAL, Dose: 0, 3000, 6000 PPM IN DIET FOR 103 WK (STUDY DURATION: 103 WK), Dose: 0, 3000, 6000 PPM IN DIET FOR 103 WK (STUDY DURATION: 103 WK), Tumor Site: Type of Lesion: LIVER: HEPATOCELLULAR ADENOMA, HEPATOCELLULAR CARCINOMA", "value": "equivocal"}, {"measurement": "carcinogen call", "setting": "Species: RAT, Strain/Sex: F344/FEMALE, Route: ORAL, Dose: 0, 6000, 12500 PPM IN DIET FOR 103 WK (STUDY DURATION: 103 WK), Dose: 0, 6000, 12500 PPM IN DIET FOR 103 WK (STUDY DURATION: 103 WK)", "value": "inactive; negative"}, {"measurement": "carcinogen call", "setting": "Species: RAT, Strain/Sex: F344/MALE, Route: ORAL, Dose: 0, 3000, 6000 PPM IN DIET FOR 103 WK (STUDY DURATION: 103 WK), Dose: 0, 3000, 6000 PPM IN DIET FOR 103 WK (STUDY DURATION: 103 WK)", "value": "inactive; negative"}]}
{"compound": "CCOC(=O)C(C)(C)Oc1ccc(Cl)cc1", "values": [{"measurement": "carcinogen call", "setting": "Species: MOUSE, Strain/Sex: CD-1/MALE,FEMALE (NEONATAL) (24-28/GROUP), Route: ORAL (GAVAGE), Dose: 0, 100, 350, 500 MG/KG BW ON D 9 AND 16 OF LIFE (STUDY DURATION: 1 YR)", "value": "inactive; negative"}, {"measurement": "carcinogen call", "setting": "Species: Mouse, Strain/Sex: Nontransgenic rasH2/Female (15/group), Route: Oral, Dose: 0, 250 mg/kg/day (Test material solvent: 0.5% (w/w) hydroxymethylcellulose in water), daily, by gavage for 27 wk, study, Dose: 0, 250 mg/kg/day (Test material solvent: 0.5% (w/w) hydroxymethylcellulose in water), daily, by gavage for 27 wk, study", "value": "inactive; negative (slight increase in incidence of various neoplasms (harderian gland, lu"}, {"measurement": "carcinogen call", "setting": "Species: Mouse, Strain/Sex: Nontransgenic rasH2/Male (15/group), Route: Oral, Dose: 0, 200 mg/kg/day (Test material solvent: 0.5% (w/w) hydroxymethylcellulose in water), daily, by gavage for 27 wk, study, Dose: 0, 200 mg/kg/day (Test material solvent: 0.5% (w/w) hydroxymethylcellulose in water), daily, by gavage for 27 wk, study, Tumor Site: Type of Lesion: Liver", "value": "inactive; negative (hepatocellular neoplasms observed in matched study of male transgenic"}, {"measurement": "carcinogen call", "setting": "Species: RAT, Strain/Sex: F344/MALE, Route: ORAL, Dose: 0.5% IN DIET FOR UP TO 28 MO, Tumor Site: Type of Lesion: LIVER: HEPATOCELLULAR CARCINOMA", "value": "active; positive"}, {"measurement": "carcinogen call", "setting": "Species: RAT, Strain/Sex: SPRAGUE-DAWLEY/MALE,FEMALE, Route: ORAL, Dose: 1500, 4500, 9000 PPM IN DIET, Dose: 1500, 4500, 9000 PPM IN DIET, Tumor Site: Type of Lesion: LIVER", "value": "active; positive"}]}
{"compound": "CCCCN(CCCC)N=O", "values": [{"measurement": "carcinogen call", "setting": "Species: GUINEA PIG, Route: ORAL, Tumor Site: Type of Lesion: LIVER", "value": "active; positive"}, {"measurement": "carcinogen call", "setting": "Species: HAMSTER, Route: GAVAGE, Tumor Site: Type of Lesion: LUNG, RESPIRATORY TRACT, TRACHEA, FORESTOMACH, Tumor Site: Type of Lesion: LUNG, RESPIRATORY TRACT, TRACHEA, FORESTOMACH", "value": "active; positive"}, {"measurement": "carcinogen call", "setting": "Species: HAMSTER, Route: INTRAPERITONEAL, Tumor Site: Type of Lesion: RESPIRATORY TRACT", "value": "active; positive"}, {"measurement": "carcinogen call", "setting": "Species: HAMSTER, Route: SUBCUTANEOUS, Tumor Site: Type of Lesion: TRACHEA, URINARY BLADDER, FORESTOMACH, RESPIRATORY TRACT, Tumor Site: Type of Lesion: TRACHEA, URINARY BLADDER, FORESTOMACH, RESPIRATORY TRACT", "value": "active; positive"}, {"measurement": "carcinogen call", "setting": "Species: MOUSE, Route: INTRAVENOUS, Tumor Site: Type of Lesion: HEMATOPOIETIC SYSTEM (LEUKEMIA)", "value": "active; positive"}, {"measurement": "carcinogen call", "setting": "Species: MOUSE, Route: ORAL, Tumor Site: Type of Lesion: ESOPHAGUS, FORESTOMACH, LIVER, URINARY BLADDER, Tumor Site: Type of Lesion: ESOPHAGUS, FORESTOMACH, LIVER, URINARY BLADDER", "value": "active; positive"}, {"measurement": "carcinogen call", "setting": "Species: MOUSE, Route: SUBCUTANEOUS, Tumor Site: Type of Lesion: URINARY BLADDER, LUNG", "value": "active; positive"}, {"measurement": "carcinogen call", "setting": "Species: RABBIT, Route: SUBCUTANEOUS, Tumor Site: Type of Lesion: URINARY BLADDER", "value": "active; positive"}, {"measurement": "carcinogen call", "setting": "Species: RAT, Route: ORAL, Tumor Site: Type of Lesion: ESOPHAGUS, LIVER, URINARY BLADDER, Tumor Site: Type of Lesion: ESOPHAGUS, LIVER, URINARY BLADDER", "value": "active; positive"}, {"measurement": "carcinogen call", "setting": "Species: RAT, Route: SUBCUTANEOUS, Tumor Site: Type of Lesion: URINARY BLADDER, LUNG", "value": "active; positive"}]}
{"compound": "CCCCCCCCCCCC(=O)N(CCO)CCO", "values": [{"measurement": "carcinogen call", "setting": "Species: MOUSE, Strain/Sex: B6C3F1/FEMALE, Route: DERMAL, Dose: 0, 100, 200 MG/KG BW IN ETHANOL FOR 105 WK (STUDY DURATION: 105 WK), Dose: 0, 100, 200 MG/KG BW IN ETHANOL FOR 105 WK (STUDY DURATION: 105 WK), Tumor Site: Type of Lesion: LIVER: HEPATOCELLULAR ADENOMA, HEPATOCELLULAR ADENOMA OR CARCINOMA, HEPATOCELLULAR CARCINOMA OR HEPATOBLASTOMA, HEPATOCE", "value": "equivocal"}, {"measurement": "carcinogen call", "setting": "Species: MOUSE, Strain/Sex: B6C3F1/MALE, Route: DERMAL, Dose: 0, 100, 200 MG/KG BW IN ETHANOL FOR 105 WK (STUDY DURATION: 105 WK), Dose: 0, 100, 200 MG/KG BW IN ETHANOL FOR 105 WK (STUDY DURATION: 105 WK)", "value": "inactive; negative"}, {"measurement": "carcinogen call", "setting": "Species: RAT, Strain/Sex: F344/N/FEMALE, Route: DERMAL, Dose: 0, 50, 100 MG/KG BW IN ETHANOL FOR 105 WK (STUDY DURATION: 105 WK), Dose: 0, 50, 100 MG/KG BW IN ETHANOL FOR 105 WK (STUDY DURATION: 105 WK)", "value": "inactive; negative"}, {"measurement": "carcinogen call", "setting": "Species: RAT, Strain/Sex: F344/N/MALE, Route: DERMAL, Dose: 0, 50, 100 MG/KG BW IN ETHANOL FOR 104 WK (STUDY DURATION: 104 WK), Dose: 0, 50, 100 MG/KG BW IN ETHANOL FOR 104 WK (STUDY DURATION: 104 WK)", "value": "inactive; negative"}]}
{"compound": "NNC(N)=S", "values": [{"measurement": "carcinogen call", "setting": "Species: MOUSE, Strain/Sex: SWISS/FEMALE, Route: ORAL, Dose: 0, 156, 312 PPM IN DRINKING WATER DAILY FOR LIFE (STUDY DURATION: 130-140 WK), Dose: 0, 156, 312 PPM IN DRINKING WATER DAILY FOR LIFE (STUDY DURATION: 130-140 WK)", "value": "inactive; negative"}, {"measurement": "carcinogen call", "setting": "Species: MOUSE, Strain/Sex: SWISS/MALE, Route: ORAL, Dose: 0, 156, 312 PPM IN DRINKING WATER DAILY FOR LIFE (STUDY DURATION: 130-140 WK), Dose: 0, 156, 312 PPM IN DRINKING WATER DAILY FOR LIFE (STUDY DURATION: 130-140 WK)", "value": "inactive; negative"}]}
{"compound": "CCCCN(N=O)C(=O)CCC", "values": [{"measurement": "carcinogen call", "setting": "Species: RAT, Strain/Sex: F344/MALE,FEMALE, Route: SUBCUTANEOUS, Dose: 38 UMOL/KG IN OLIVE OIL 1/WK FOR 10 WK, Tumor Site: Type of Lesion: INJECTION SITE: MALIGNANT FIBROUS HISTIOCYTOMA, LUNG: ADENOMA", "value": "active; positive"}]}
{"compound": "Cc1cccc(OCC(O)CNC(C)(C)C)c1[N+](=O)[O-]", "note": "(stereo unspecified)", "values": [{"measurement": "carcinogen call", "setting": "Species: RAT, Strain/Sex: WISTAR/FEMALE, Route: ORAL, Dose: 0, 25, 50, 100 MG/KG DAILY BY GAVAGE FOR 3 OR 6 MO, Dose: 0, 25, 50, 100 MG/KG DAILY BY GAVAGE FOR 3 OR 6 MO, Tumor Site: Type of Lesion: LIVER: NEOPLASTIC NODULE, HEPATOCELLULAR CARCINOMA", "value": "active; positive"}]}
